From ChEMBL document CHEMBL1201862, “PubChem BioAssay data set” (2004)
Calls of active or inactive are those of the source.

Experiments:
[1] = target: Sphingosine 1-phosphate receptor 5 (Homo sapiens, UniProt Q9H228); assay: (§1) Late-stage fluorescence-based dose-response cell-based assay to identify agonists of the Sphingosine 1-Phosphate Receptor 4 (S1P4): Sphingosine 1-Phosphate Receptor 5 (S1P5) counterscreen assay. [Related pubchem assays (depositor defined):AID1509, AID1523, AID1563, AID1686, AID1701, AID1801, AID463107, AID463225, AID504400]; type: functional
Sphingosine 1-phosphate receptor 5, sequence (Q9H228 whole entry): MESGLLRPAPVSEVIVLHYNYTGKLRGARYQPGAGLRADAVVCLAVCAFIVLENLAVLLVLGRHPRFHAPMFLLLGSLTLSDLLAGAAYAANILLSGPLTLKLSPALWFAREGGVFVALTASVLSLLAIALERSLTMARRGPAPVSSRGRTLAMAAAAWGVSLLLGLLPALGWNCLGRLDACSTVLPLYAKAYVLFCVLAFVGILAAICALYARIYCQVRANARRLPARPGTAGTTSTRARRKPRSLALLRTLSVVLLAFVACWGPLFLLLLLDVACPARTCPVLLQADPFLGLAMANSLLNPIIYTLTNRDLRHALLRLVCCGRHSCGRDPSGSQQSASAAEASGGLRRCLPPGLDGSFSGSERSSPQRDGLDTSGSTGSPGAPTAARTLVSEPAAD

[2] = target: Sphingosine 1-phosphate receptor 3 (Homo sapiens, UniProt Q99500); assay: as §1, with “3 (S1P3)” for “5 (S1P5)”; type: functional
Sphingosine 1-phosphate receptor 3, sequence (Q99500 whole entry): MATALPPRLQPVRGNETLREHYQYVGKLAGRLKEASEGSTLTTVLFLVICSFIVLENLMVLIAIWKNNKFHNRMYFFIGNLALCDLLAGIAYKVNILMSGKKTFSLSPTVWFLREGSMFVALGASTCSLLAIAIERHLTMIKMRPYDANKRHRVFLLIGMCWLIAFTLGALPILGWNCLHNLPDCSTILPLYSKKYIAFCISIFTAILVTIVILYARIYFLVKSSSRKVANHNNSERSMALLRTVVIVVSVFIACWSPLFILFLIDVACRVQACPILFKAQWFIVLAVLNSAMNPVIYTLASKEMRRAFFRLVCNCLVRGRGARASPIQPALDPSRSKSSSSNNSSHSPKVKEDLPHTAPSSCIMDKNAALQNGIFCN

[3] = target: Sphingosine 1-phosphate receptor 2 (Homo sapiens, UniProt O95136); assay: as §1, with “2 (S1P2)” for “5 (S1P5)”; type: functional
Sphingosine 1-phosphate receptor 2, sequence (O95136 whole entry): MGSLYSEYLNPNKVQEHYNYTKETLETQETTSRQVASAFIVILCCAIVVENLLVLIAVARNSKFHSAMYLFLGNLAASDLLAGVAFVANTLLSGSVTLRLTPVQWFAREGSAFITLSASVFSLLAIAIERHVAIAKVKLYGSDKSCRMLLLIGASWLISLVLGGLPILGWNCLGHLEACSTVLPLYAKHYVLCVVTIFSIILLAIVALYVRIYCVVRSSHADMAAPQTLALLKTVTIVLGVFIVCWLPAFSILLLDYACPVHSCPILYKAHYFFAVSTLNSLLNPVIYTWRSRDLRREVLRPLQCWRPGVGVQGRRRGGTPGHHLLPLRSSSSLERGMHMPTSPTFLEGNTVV

[4] = target: Sphingosine 1-phosphate receptor 1 (Homo sapiens, UniProt P21453); assay: as §1, with “1 (S1P1)” for “5 (S1P5)”; type: functional
Sphingosine 1-phosphate receptor 1, sequence (P21453 whole entry): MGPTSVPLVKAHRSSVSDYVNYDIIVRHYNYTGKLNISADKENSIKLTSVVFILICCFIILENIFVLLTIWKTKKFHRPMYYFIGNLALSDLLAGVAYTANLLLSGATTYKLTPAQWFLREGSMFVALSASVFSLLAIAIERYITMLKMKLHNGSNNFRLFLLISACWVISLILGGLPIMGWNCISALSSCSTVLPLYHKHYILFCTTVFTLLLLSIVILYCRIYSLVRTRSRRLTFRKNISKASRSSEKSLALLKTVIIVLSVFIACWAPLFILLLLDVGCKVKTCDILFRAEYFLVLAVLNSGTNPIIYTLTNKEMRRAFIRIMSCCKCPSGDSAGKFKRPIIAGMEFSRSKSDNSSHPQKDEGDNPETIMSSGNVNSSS

[5] = target: G-protein coupled receptor 55 (Homo sapiens, UniProt Q9Y2T6); assay: SAR Analysis of Selective Antagonists of GPR55 using an Image-Based Assay - Set 4. [Related pubchem assays (depositor defined):AID2013, AID2026]; type: functional;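 also: antagonism of response to 5 µM lysophosphatidylinositol agonist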
G-protein coupled receptor 55, sequence (Q9Y2T6 whole entry): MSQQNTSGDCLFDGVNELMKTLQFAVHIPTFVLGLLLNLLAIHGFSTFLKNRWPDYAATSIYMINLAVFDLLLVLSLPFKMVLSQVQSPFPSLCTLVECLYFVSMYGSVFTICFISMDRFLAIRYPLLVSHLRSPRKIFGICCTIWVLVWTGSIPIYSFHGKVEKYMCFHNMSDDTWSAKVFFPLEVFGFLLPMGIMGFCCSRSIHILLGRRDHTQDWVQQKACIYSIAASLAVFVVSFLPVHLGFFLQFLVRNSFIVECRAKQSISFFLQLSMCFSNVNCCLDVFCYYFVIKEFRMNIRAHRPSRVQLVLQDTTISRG

Cannabinoid receptor 2 [6] = target: T1, Cannabinoid receptor 2 (Homo sapiens, UniProt P34972); assay: SAR analysis of antagonists of the Cannabinoid Receptor 2 using an Image-Based Assay - Set 3. [Related pubchem assays (depositor defined):AID2013, AID2026]; type: functional
T1 sequence (P34972 whole entry): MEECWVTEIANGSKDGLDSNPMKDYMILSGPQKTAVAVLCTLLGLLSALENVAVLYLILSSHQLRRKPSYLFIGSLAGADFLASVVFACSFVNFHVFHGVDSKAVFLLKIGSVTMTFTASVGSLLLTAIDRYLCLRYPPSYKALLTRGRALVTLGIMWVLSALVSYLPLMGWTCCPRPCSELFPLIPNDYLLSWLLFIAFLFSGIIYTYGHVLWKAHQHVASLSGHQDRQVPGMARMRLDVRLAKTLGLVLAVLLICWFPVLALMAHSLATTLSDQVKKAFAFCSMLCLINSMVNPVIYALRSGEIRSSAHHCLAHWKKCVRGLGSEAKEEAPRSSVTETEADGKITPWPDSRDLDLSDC

Cannabinoid receptor 2 [7] = target: T1, Cannabinoid receptor 2; assay: SAR analysis of agonists of the Cannabinoid Receptor 2 using an Image-Based Assay - Set 3. [Related pubchem assays (depositor defined):AID2013, AID2026]; type: functional
[8] = target: T2, G-protein coupled receptor 35 (Homo sapiens, UniProt Q9HC97); assay: SAR analysis of Antagonists of the GPR35 Receptor using an Image-Based Assay - Set 6. [Related pubchem assays (depositor defined):AID2013, AID2026]; type: functional
T2 sequence (Q9HC97 whole entry): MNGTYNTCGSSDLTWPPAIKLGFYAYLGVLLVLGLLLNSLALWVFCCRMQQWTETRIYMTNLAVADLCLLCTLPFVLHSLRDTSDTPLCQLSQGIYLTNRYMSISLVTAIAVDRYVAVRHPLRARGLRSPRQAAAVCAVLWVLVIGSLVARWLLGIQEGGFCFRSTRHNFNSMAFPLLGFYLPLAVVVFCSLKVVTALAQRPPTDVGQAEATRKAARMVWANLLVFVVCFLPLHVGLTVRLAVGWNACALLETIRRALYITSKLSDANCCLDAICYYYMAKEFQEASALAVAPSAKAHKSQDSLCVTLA

Cannabinoid receptor 1 [9] = target: T3, Cannabinoid receptor 1 (Homo sapiens, UniProt P21554); assay: SAR analysis of antagonists of the Cannabinoid Receptor 1 using an Image-Based Assay - Set 4. [Related pubchem assays (depositor defined):AID2013, AID2026]; type: functional
T3 sequence (P21554 whole entry): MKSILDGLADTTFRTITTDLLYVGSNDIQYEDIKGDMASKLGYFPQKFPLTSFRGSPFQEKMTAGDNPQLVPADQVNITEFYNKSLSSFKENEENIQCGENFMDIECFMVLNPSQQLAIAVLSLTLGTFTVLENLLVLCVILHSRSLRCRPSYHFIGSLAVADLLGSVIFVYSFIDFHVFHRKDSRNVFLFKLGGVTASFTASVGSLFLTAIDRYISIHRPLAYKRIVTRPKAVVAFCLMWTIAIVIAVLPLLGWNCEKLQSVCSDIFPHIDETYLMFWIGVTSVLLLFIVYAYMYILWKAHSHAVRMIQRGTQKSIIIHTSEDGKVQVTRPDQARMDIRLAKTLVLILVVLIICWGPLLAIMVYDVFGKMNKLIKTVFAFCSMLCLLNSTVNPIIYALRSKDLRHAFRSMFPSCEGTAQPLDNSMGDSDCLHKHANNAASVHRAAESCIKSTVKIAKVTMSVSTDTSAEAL

Cannabinoid receptor 1 [10] = target: T3, Cannabinoid receptor 1; assay: SAR analysis of agonists of the Cannabinoid Receptor 1 using an Image-Based Assay - Set 4. [Related pubchem assays (depositor defined):AID2013, AID2026]; type: functional
[11] = target: T2, G-protein coupled receptor 35; assay: SAR analysis of Agonists of the GPR35 Receptor using an Image-Based Assay - Set 4. [Related pubchem assays (depositor defined):AID2013, AID2026]; type: functional
[12] = Luminescence Cell-Based Dose Response HTS to Identify Inhibitors of Luciferase Translation or Activity in H4-C Neuroglioblastoma Cells. [Related pubchem assays: 1813 (Primary HTS), 1827 (Project Summary)]; type: functional
[13] = alpha-synuclein stem-loop luciferase translation blockers – H4 neuroglioma cells, luminescence, confirmation (AID 1988); type: functional, cell-based
[14] = Luminescence Cell-Based Dose Retest to Confirm Activators of 5'UTR Stem-Loop Driven Alpha-Synuclein mRNA Translation in H4 Neuroglioblastoma Cells. [Related pubchem assays (depositor defined):AID1813, AID1829]; type: functional
[15] = Luminescence Cell-Based Dose Confirmation HTS to Identify Inhibitors of 5'UTR Stem-Loop Driven Alpha-Synuclein mRNA Translation in H4 Neuroglioblastoma Cells. [Related pubchem assays: 1827 (Project Summary), 1813 (Primary HTS)]; type: functional
[16] = Luminescence Cell-Based Dose Response HTS to Identify Activators of 5'UTR Stem-Loop Driven Prion Protein mRNA Translation in H4-C Neuroglioblastoma Cells. [Related pubchem assays: 1829 (Project Summary), 1814 (Primary HTS)]; type: functional
[17] = Luminescence Cell-Based Dose Response HTS to Identify Activators of Luciferase Translation or Activity in H4-C Neuroglioblastoma Cells. [Related pubchem assays: 1829 (Project Summary), 1814 (Primary HTS)]; type: functional
[18] = non-specific 3'UTR reporter inhibition in Clone20-Shn3RL – cell-based, Renilla luciferase, cherry-picked, counter-screen for Shn3 inhibitor project, dose response (AID 624133); type: functional
[19] = HEK-293T viability loss after treatment – luminescence, T-cell screen hits, cytotoxicity control for TCR NF-kB inhibitor project, dose response (AID 489026); type: functional, cell-based;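 also: cells exposed to compound about 14 hours before the viability readout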
[20] = loss of viability in HepG2 cells – cell-based, CellTiter-Glo, cherry-picked, cytotoxicity control for Shn3 inhibitor project, dose response (AID 624134); type: functional
[21] = reduction of Shn3 3'UTR-driven luciferase in osteoblasts – cell-based, Clone20 osteoblasts, firefly luciferase, cherry-picked, dose response (AID 624132); type: functional;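 also: firefly luciferase luminescence from reporter carrying the Shn3 3'UTR in osteoblasts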
[22] = Luminescence Cell-Based Dose Response HTS to Identify Inhibitors of 5'UTR Stem-Loop Driven Prion Protein mRNA Translation in H4 Neuroglioblastoma Cells. [Related pubchem assays: 1827 (Project Summary), 1813 (Primary HTS)]; type: functional
[23] = Luminescence Cell-Based Dose HTS Response to Identify Inhibitors of 5'UTR Stem-Loop Driven Prion Protein mRNA Translation in H4-C Neuroglioblastoma Cells. [Related pubchem assays (depositor defined):AID1814, AID1827]; type: functional
[24] = luciferase reporter signal suppression in cells – H4 neuroglioma cells, luminescence, dose response (AID 1990); type: functional, cell-based
Trypsin = Trypsin (Sus scrofa, UniProt P00761); assay: trypsin protease activity blockade – biochemical, quenched peptide fluorescence, cherry-pick, selectivity assay for Rce1 protease inhibitor project, dose response (AID 488789)
Trypsin, sequence (P00761 whole entry): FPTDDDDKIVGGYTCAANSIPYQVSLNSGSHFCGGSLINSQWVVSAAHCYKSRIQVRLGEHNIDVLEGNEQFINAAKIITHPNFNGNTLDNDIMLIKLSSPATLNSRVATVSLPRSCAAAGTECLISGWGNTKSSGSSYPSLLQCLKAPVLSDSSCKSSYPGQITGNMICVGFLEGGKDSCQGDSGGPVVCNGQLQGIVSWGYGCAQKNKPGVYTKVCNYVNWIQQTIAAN

[25] = toxicity toward cultured mammalian cells – cell-based, plate reader, cherry-pick samples, cytotoxicity control, dose response (AID 504397); type: functional
CAAX prenyl protease 2 = target: T4, CAAX prenyl protease 2 (Saccharomyces cerevisiae S288c, UniProt Q03530); type: biochemical
T4 sequence (Q03530 whole entry): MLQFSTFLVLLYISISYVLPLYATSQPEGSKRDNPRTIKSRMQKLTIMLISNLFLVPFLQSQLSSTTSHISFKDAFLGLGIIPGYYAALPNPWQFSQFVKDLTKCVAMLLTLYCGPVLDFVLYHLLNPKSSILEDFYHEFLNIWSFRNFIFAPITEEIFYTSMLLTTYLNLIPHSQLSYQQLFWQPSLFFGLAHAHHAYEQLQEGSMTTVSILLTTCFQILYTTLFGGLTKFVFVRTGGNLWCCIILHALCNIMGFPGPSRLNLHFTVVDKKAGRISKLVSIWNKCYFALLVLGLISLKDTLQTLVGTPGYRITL

**Q.** Which EC50 [1] does the source give for `Cc1ccc(OCCOc2c(Cl)cc(Cl)cc2Cl)c([N+](=O)[O-])n1` here?
**A.** > 50 µM (inactive)

**Q.** What about the EC50 [2] of the same compound?
**A.** > 50 µM (inactive)

**Q.** What about the EC50 [3] of the same compound?
**A.** > 50 µM (inactive)

**Q.** And the EC50 [4]?
**A.** > 50 µM (inactive)

**Q.** What does the source list for `N=c1c(C(=O)NC2CCCCC2)cc2c(=O)n3ccccc3nc2n1C1CCCC1`?
**A.** IC50 [5]: 29 µM (inactive); IC50 (Cannabinoid receptor 2 [6]): > 32 µM (inactive); EC50 (Cannabinoid receptor 2 [7]): > 32 µM (inactive); IC50 [8]: > 32 µM (inactive); IC50 (Cannabinoid receptor 1 [9]): > 32 µM (inactive); EC50 (Cannabinoid receptor 1 [10]): > 32 µM (inactive); EC50 [11]: > 32 µM (inactive)

**Q.** With `CCCOc1ccccc1C1CC(=O)Nc2cc3c(cc21)OCO3` (configuration not stated) as the compound, how does the EC50 [12] read?
**A.** 2.97 µM (active)

**Q.** And the EC50 [13]?
**A.** 0.158 µM (active)

**Q.** What about the EC50 [14] of the same compound?
**A.** 35.8 µM (inconclusive)

**Q.** And the EC50 [15]?
**A.** 35.8 µM (active)

**Q.** What about the EC50 [16] of the same compound?
**A.** 2.4 µM (inconclusive)

**Q.** What about the EC50 [17] of the same compound?
**A.** 2.97 µM (inconclusive)

**Q.** What about the AC50 [18] of the same compound?
**A.** 15.3 µM (active)

**Q.** And the IC50 [19]?
**A.** 60.1 µM (inactive)

**Q.** And the AC50 [20]?
**A.** > 70 µM (inactive)

**Q.** What about the AC50 [21] of the same compound?
**A.** 5.72 µM (active)

**Q.** What about the EC50 [22] of the same compound?
**A.** > 120 µM (not active)

**Q.** What about the EC50 [23] of the same compound?
**A.** 2.4 µM (active)

**Q.** And the EC50 [24]?
**A.** 3.65 µM (inconclusive)

**Q.** What does the source list for `COc1cccc(C2CC(c3ccc(Br)cc3)=NN2C(=O)c2ccncc2)c1OC` (configuration not stated)?
**A.** AC50 (Trypsin): 48.7 µM (active); AC50 [25]: 45.2 µM (active); AC50 (CAAX prenyl protease 2): 3.7 µM (active)
